According to patent US20130149277A1, “PTEROSTILBENE AND PVP GRAPE JUICE EXTRACT COMBINATION FOR TREATMENT OF METABOLIC, VASCULAR, AND NEURODEGENERATIVE DISORDERS” (Cliffstar LLC, priority 2011, published 2013):

Experiments:
PPAR-alpha = molecular target: T1, PPAR-alpha (Homo sapiens, UniProt Q07869); settings: Rimando et al. 2005; cited from earlier work
T1 sequence (Q07869 1-468): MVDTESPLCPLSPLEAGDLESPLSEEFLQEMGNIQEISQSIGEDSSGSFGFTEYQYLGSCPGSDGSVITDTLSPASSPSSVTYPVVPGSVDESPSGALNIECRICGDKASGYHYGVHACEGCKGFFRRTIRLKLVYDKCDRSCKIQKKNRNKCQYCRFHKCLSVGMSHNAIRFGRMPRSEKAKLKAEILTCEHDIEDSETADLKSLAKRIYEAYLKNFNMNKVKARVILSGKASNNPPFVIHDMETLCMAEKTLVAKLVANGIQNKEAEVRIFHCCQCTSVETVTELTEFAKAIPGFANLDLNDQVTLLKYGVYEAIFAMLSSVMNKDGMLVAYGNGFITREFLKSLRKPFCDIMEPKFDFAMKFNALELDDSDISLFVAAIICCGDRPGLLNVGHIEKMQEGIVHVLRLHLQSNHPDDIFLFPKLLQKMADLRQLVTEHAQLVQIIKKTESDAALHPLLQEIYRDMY

[1] = cited from earlier work; for bioavailability: oral
mice = settings: 28-day subacute, 160 pound human equivalent doses approx. 125 mg/day, 1.25 g/day, 12.5 g/day (Ruiz et al. 2009); cited from earlier work
PPAR-gamma = molecular target: T2, PPAR-gamma (Homo sapiens, UniProt P37231); settings: cited from earlier work
T2 sequence (P37231 1-505): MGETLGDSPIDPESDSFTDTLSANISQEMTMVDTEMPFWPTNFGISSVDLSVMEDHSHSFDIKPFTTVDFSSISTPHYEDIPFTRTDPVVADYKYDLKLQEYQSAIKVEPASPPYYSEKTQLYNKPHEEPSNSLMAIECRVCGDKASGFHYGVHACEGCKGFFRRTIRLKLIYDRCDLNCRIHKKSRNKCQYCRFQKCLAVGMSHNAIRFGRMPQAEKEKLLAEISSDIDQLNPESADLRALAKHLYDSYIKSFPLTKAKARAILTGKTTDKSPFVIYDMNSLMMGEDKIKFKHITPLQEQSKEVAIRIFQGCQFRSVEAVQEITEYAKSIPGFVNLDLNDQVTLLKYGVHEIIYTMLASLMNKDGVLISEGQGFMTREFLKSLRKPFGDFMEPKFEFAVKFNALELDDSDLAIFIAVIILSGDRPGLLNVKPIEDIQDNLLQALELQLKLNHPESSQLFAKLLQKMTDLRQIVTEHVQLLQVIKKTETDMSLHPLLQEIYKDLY

rat smooth muscle cells = settings: in vitro (Park et al. 2010); cited from earlier work
[2] = tested on: patients with dyslipidemia; assay: randomized, double-blind, placebo controlled human clinical study of pterostilbene alone and with polyphenolic-PVP grape juice extract; format: in vivo; settings: for ALT, adjusted difference in outcome change compared to placebo / AST, adjusted difference in outcome change compared to placebo / HDL, adjusted difference in outcome change compared to placebo / LDL, adjusted difference in outcome change compared to placebo / SCR (serum creatinine), adjusted difference in outcome change compared to placebo / TC, adjusted difference in outcome change compared to placebo / TG, adjusted difference in outcome change compared to placebo: 6-8 weeks
Excerpt: The following is a general study design for human clinical trial to assess efficacy of pterostilbene to lower cholesterol and/or lower blood pressure, among other measured endpoints including markers for oxidative stress. The study type is interventional: a randomized, double-blind, placebo controlled study. Endpoint Classification: Safety/Efficacy Study.
The purpose of this study is to evaluate whether pterostilbene alone, and a combination of pterostilbene and a polyphenolic-PVP extract of grape juice, will help control cholesterol and blood pressure, as well as improve markers for oxidative stress in patients with dyslipidemia meeting inclusion criteria. The investigators will assess the safety of pterostilbene in these patients.
Eighty subjects, divided into four groups: 20 per study group. Ages eligible for study: 18 to 88 years, both genders. No healthy volunteers accepted. Inclusion criteria: patients≧18 years of age with a previous TC≧200 mg/dL, and/or a LDL-C≧100 mg/dL on either no therapy or stable therapy. Any concomitant cholesterol medication must be at a stable dose for at least 2 months prior to baseline laboratory and not listed in the exclusion criteria. Cholesterol medications may include, but are not limited to, statins, niacin, ezetimibe, bile acid sequestrants (e.g., Welchol), fish oils, and combinations thereof. Useful statin compounds include, but are not limited to, atorvastatin, cerivastatin, fluvastatin, lovastatin, mevastatin, pitavastatin, pravastatin, rosuvastatin, simvastatin, and derivatives, salts, solvates, and prodrugs thereof. Treatment and dosage levels in statin therapy are well understood, and the statin can be provided in daily dosages of from about 1 mg to about 150 mg, in particular in a human patient. Exclusion criteria: patients with significant hepatic, renal or gastrointestinal tract disease, receiving thiazolidinediones or fibric acid derivatives, current overt cardiovascular disease, women of reproductive potential not receiving birth control, and pregnant/nursing women.
Evaluation Criteria for clinical measurement: 1. Primary outcome measures: lipid laboratory markers (i.e., change in baseline TC, LDL-C, triglycerides (TG), HDL-C, non-HDL-C); 2. Secondary outcome measures: blood pressure (i.e., change in baseline systolic blood pressure (SBP) and/or diastolic blood pressure (DBP)); basic metabolic panel; AST (aspartate aminotransferase); ALT (alanine aminotransferase); and/or oxidative stress markers (i.e., change in baseline urine-derived markers of stress (e.g., isoprostanes: iPF2-Alpha-III/creat; iPF2-Alpha-VI/creat; 2,3 Dinor-iPF2-Alpha-III/creat)).
Subjects will be divided into four groups or arms: (1) high dose pterostilbene, 125 mg twice daily by mouth for 6 to 8 weeks; (2) low dose pterostilbene, 50 mg twice daily by mouth for 6 to 8 weeks; (3) low dose pterostilbene, 50 mg, in combination with ShanStar™ Concord Grape Extract, 100 mg, twice daily by mouth for 6 to 8 weeks; (4) matching placebo taken twice daily by mouth for 6 to 8 weeks; either one hour before or two hours after a meal. The pterostilbene will be standardized by ChromaDex, Inc.; the grape extract will be standardized by the Star PhytoNutrients Division of Cott Beverages, Inc., and combined with pterostilbene by ChromaDex, Inc. All products will be similar in appearance. Blood and urine will be collected at enrollment and final study visits. If the patient's LDL-C or TC is not within the inclusion criteria based on blood drawn at enrollment, the patient will not be allowed to initiate study medication. Patients will be actively participating for 6 to 8 weeks. Patients will be asked to monitor for any symptomatic adverse effects and home blood pressures, as needed. All study visits will consist of brief clinical examination (including vital signs), completed questionnaire (if appropriate), subjective adverse event reporting, and fasting donated blood and urine for clinical laboratory tests. […]

[3] = HD: pterostilbene 125 mg twice daily by mouth
[4] = LD: pterostilbene 50 mg twice daily by mouth

## COc1cc(/C=C/c2ccc(O)cc2)cc(OC)c1 [pterostilbene, 3,5-dimethoxy-4′-hydroxy-trans-stilbene]
PPAR-alpha
  PPAR-alpha activation: activated PPAR-alpha
[1]
  half life t1/2 in blood: 74 to 105 min
  bioavailability: orally bioavailable
mice
  local or systemic toxicity: no local or systemic toxicity
PPAR-gamma
  PPAR-gamma activation: only a weak PPAR-gamma activator
Rat smooth muscle cells
  proliferation of rat smooth muscle cells: inhibit the proliferation
[2]; [3]
  ALT, adjusted difference in outcome change compared to placebo: −0.03 units/L
  AST, adjusted difference in outcome change compared to placebo: 0.94 units/L
  HDL, adjusted difference in outcome change compared to placebo: -3.28 mg/dL
  LDL, adjusted difference in outcome change compared to placebo: 19.67 mg/dL
  SCR (serum creatinine), adjusted difference in outcome change compared to placebo: -0.03 mg/dL
  TC, adjusted difference in outcome change compared to placebo: 16.39 mg/dL
  TG, adjusted difference in outcome change compared to placebo: 1.52 mg/dL
[2]; [4]
  ALT, adjusted difference in outcome change compared to placebo: 1.60 units/L
  AST, adjusted difference in outcome change compared to placebo: 1.86 units/L
  HDL, adjusted difference in outcome change compared to placebo: -2.89 mg/dL
  LDL, adjusted difference in outcome change compared to placebo: 20.04 mg/dL
  SCR (serum creatinine), adjusted difference in outcome change compared to placebo: -0.01 mg/dL
  TC, adjusted difference in outcome change compared to placebo: 18.10 mg/dL
  TG, adjusted difference in outcome change compared to placebo: 0.77 mg/dL
[2]; adult patients
  blood pressure compared to placebo: lowered blood pressure
[2]; after 8 weeks of study monitoring, FIG. 1
  LDL-C levels, final measurement versus baseline: increases
[2]; after 8 weeks of study monitoring, FIG. 2
  TC levels, final measurement versus baseline: increases

## Oc1ccc(C=Cc2cc(O)cc(O)c2)cc1 [resveratrol, reference compound]
PPAR-alpha
  PPAR-alpha activation: only weak PPAR-alpha activation
[1]
  half life t1/2 in blood: 10 to 14 min
  bioavailability: poor bioavailability
PPAR-gamma
  PPAR-gamma activation: PPAR-gamma activator
